# Assay results taken from patent publication US9273095B2, “Antibiotic peptide and preparation method therefor and application therefor” (priority 2011, dated 2016).
# Marks after values point to notes of the source that are not given here. Non-standard residues stand in square brackets, D forms with d. Residues, ends and D or L forms follow the SMILES beside them.
# Legend:
# [1] = system: Candida albicans and Escherichia; experiment: Therapeutic experiment of injection on mice with multiple mixed infections, survival time; format: in vivo, ICR mice; details: for Mean survival Time / average survival time: observed fourteen days; for Mean survival Time / Mortality of mice in different days after infection: n = 20; for average survival time: injection through caudal vena twice a day for three days
# Experimental: There are 60 male and 60 female ICR mice with the weight ranging from 18 g to 22 g. According to their weight, they are randomly divided into 6 groups of 20 mice: blank control group, negative control group, Levofloxacin positive control group, and high, middle and low dose of PL-18 (SEQ ID NO: 1) group. With trinitrophenal marking method, all the mice are raised with ordinary animal feeds in the ordinary animal houses and they can drink water freely. Alternating of light and dark is conducted every 12 hours.
# 2. Infected Strains: Candida albicans and Escherichia
# PL-18 (SEQ ID NO: 1) freeze-dried powder injection (supplied by Jiangsu ProteLight Pharmaceutical & Biotechnology Co., LTD.), Levofloxacin Hydrochloride and Sodium Chloride Injection (supplied by Yangtze River Pharmaceutical Group) and 0.9% Sodium Chloride Injection (supplied by Chifeng Rongjitang Pharmaceutical CO., Ltd.)
# (1) The preparation of bacterial suspension is the same as above.
# (2) The Candida albicans suspension cultured overnight is diluted to 1×10^6CFU/ml with Sodium Chloride and 5×10^5CFU of which is injected into abdominal cavity of every mouse; the Escherichia suspension cultured overnight is diluted to 2×10^8CFU/ml and 1×10^7CFU of which is injected into abdominal cavity of every mouse to make model with mixed infections.
# (3) The blank control group is injected with normal saline into their abdominal cavity, the positive control group is injected with Levofloxacin into their abdominal cavity.
# (4) Administration: The drugs are administered according to weight right after the model is ready. All the groups except the blank and the infected negative control group are injected with different dosage of different injections through caudal vena twice a day successively for three days, and they are observed for fourteen days.
# (5) Observe death of the animals and record their survival time.
# [2] = system: red cell suspension from healthy volunteers; experiment: Hemolytic activity test; format: cell-based, human; details: for Hemolytic activity, absorbancy (OD value) at 570 nm: 4 hours at 37° C., OD higher than 0.1 is hemolytic, n = 3; for hemolytic toxicity (in words): summary of Table 9
# Experimental: (1) Samples are serial diluted with sterile PBS to 1000, 500, 250, 125, 64, 32, 16, 8, 4 μg/ml in turn and spread in 96-well plates, 100 μl per orifice.
# (2) We use distilled water as positive control, sterile PBS as negative control and blank orifice with 200 μl PBS solution added. Each concentration above is made in triplicate.
# (3) We take 3 ml whole blood from healthy volunteers and washed it with sterile PBS three times to prepare fresh 2% concentration red cell suspension. Then we added 100 μl red cell suspension into each orifice and made them cultured for 4 hours at 37° C. in the incubator. After centrifuged by plate-swashing centrifuge, the supernatant liquid is collected and measured absorbancy (OD value) at a wavelength of 570 nm. Then we compared the hemolytic efficiency of these concentrations.
# (4) According to the documents standard, OD value which is higher than 0.1 is hemolytic concentration.
# [3] = system: Staphylococcus epidermidis ATCC12228; experiment: Anti-infection test of externally-applied agent on skin, viable count; format: in vivo, ICR mice; details: for viable count, Liver (1:5) / viable count, Skin (1:10) / viable count, Spleen (1:5) / viable count, Whole blood: 0.1 ml morning and evening for 7 days, n = 10; for inhibition of skin infection (in words): externally-applied agent, twice daily for 7 days, Staphylococcus epidermidis
# Source text: (§1) 1. Experimental Strains: Staphylococcus epidermidis ATCC12228 and Staphylococcus aureus ATCC25923
# (§2) There are 50 male ICR mice with the weight of 20±2 g. According to their weight, they are randomly divided into 5 groups of 10 mice: negative infected control group, Bactroban positive control group, 1% concentration cream group, 1‰ concentration cream group and blank ground substance group. Each group is raised in the same plastic case. Their blank parts, heads, necks, backs and tails are marked with picric acid marking method. All the mice are raised with ordinary animal feeds in the ordinary animal houses and they could drink water freely. Alternating of light and dark is conducted every 12 hours.
# (§3) There are preparation of 1% concentration, 1‰ concentration, and blank ground substance preparation (supplied by Jiangsu ProteLight Pharmaceutical & Biotechnology Co., LTD.) and Bactroban (supplied by SK&F).
# (§4) (1) The bacteria strains which preserved in liquid nitrogen are inoculated to MHB plate and cultured overnight at 37° C.
# (§5) (2) The solid strains are inoculated to MHB liquid medium and overnight cultured shakily at the speed of 220 rpm at 37° C.
# (§6) (3) The bacterial suspension cultured overnight is diluted to 5×10^6CFU/ml and applied in reserve.
# (§7) (4) Skin modeling: Mice's back are sheared and depilated by depilatory paste. After the hair off, they are abraded with 0.3 mm-long sandpaper to bleeding and injected 0.1 ml bacterial suspension with the concentration of 5×10^6CFU/ml subcutaneously.
# (§8) (5) Administration: All the groups except the negative infected control group are respectively applied different cream with the dosage of 0.1 ml once respectively in the morning and evening for 7 days.
# (§9) (6) After 7 days, the visceral organs, blood and infected skin of mice are collected by aseptic method to count viable bacteria.
# [4] = system: Staphylococcus aureus ATCC25923; experiment: as above; format: in vivo, ICR mice; details: for viable count, Liver (1:5) / viable count, Skin (1:10) / viable count, Spleen (1:5) / viable count, Whole blood: 0.1 ml morning and evening for 7 days, n = 10; for inhibition of skin infection (in words): externally-applied agent, twice daily for 7 days, Staphylococcus aureus
# Source text: as §1, §2, §3, §4, §5, §6, §7, §8, §9
molecule,measurement,setting,value
"C[C@H]1COc2c(N3CCN(C)CC3)c(F)cc3c(=O)c(C(=O)O)cn1c23 [Levofloxacin, levofloxacin, reference compound]",Mean survival Time,[1]; 30 mg/kg,3.9* day
same,Mortality of mice in different days after infection,"[1]; day 1, 30 mg/kg",8
same,Mortality of mice in different days after infection,"[1]; day 2, 30 mg/kg",6
same,Mortality of mice in different days after infection,"[1]; day 3, 30 mg/kg",2
same,Mortality of mice in different days after infection,"[1]; day 4, 30 mg/kg",0
same,Mortality of mice in different days after infection,"[1]; day 5, 30 mg/kg",0
CC[C@@H](C)[C@@H](NC(=O)[C@@H](CCCCN)NC(=O)[C@@H](CO)NC(=O)[C@@H](Cc1ccccc1)NC(=O)[C@@H](CC(C)C)NC(=O)[C@@H](CCCCN)NC(=O)[C@@H](CCC(=O)O)NC(=O)[C@@H](CC(C)C)NC(=O)[C@@H](CCCNC(=N)N)NC(=O)[C@@H](CCCCN)NC(=O)[C@@H](Cc1ccccc1)NC(C)=O)C(=O)N[C@H](Cc1c[nH]c2ccccc12)C(=O)N[C@H](CC(N)=O)C(=O)N[C@H](Cc1c[nH]c2ccccc12)C(=O)N[C@H](CCCCN)C(N)=O [PL-17] (Ac-[dF][dK][dR][dL][dE][dK][dL][dF][dS][dK][dI][dW][dN][dW][dK]-NH2),"Hemolytic activity, absorbancy (OD value) at 570 nm",[2]; peptide 7.8125 μg/ml,0.033
same,"Hemolytic activity, absorbancy (OD value) at 570 nm",[2]; peptide 15.625 μg/ml,0.056
same,"Hemolytic activity, absorbancy (OD value) at 570 nm",[2]; peptide 31.25 μg/ml,0.063
same,"Hemolytic activity, absorbancy (OD value) at 570 nm",[2]; peptide 62.5 μg/ml,0.065
same,"Hemolytic activity, absorbancy (OD value) at 570 nm",[2]; peptide 125 μg/ml,0.078
same,"Hemolytic activity, absorbancy (OD value) at 570 nm",[2]; peptide 250 μg/ml,0.082
same,"Hemolytic activity, absorbancy (OD value) at 570 nm",[2]; peptide 500 μg/ml,0.152
same,"Hemolytic activity, absorbancy (OD value) at 570 nm",[2]; peptide 1000 μg/ml,0.339
same,hemolytic toxicity (in words),[2],little hemolytic toxicity
CC(=O)N[C@H](Cc1ccccc1)C(=O)N[C@H](CCCCN)C(=O)N[C@H](CCCCN)C(=O)N[C@H](CC(C)C)C(=O)N[C@H](CCCCN)C(=O)N[C@H](CCCCN)C(=O)N[C@H](CC(C)C)C(=O)N[C@H](Cc1ccccc1)C(=O)N[C@H](CO)C(=O)N[C@H](CCCCN)C(=O)N[C@H](CC(C)C)C(=O)N[C@H](Cc1c[nH]c2ccccc12)C(=O)N[C@H](CC(N)=O)C(=O)N[C@H](Cc1c[nH]c2ccccc12)C(=O)N[C@H](CCCCN)C(N)=O [PL-18] (Ac-[dF][dK][dK][dL][dK][dK][dL][dF][dS][dK][dL][dW][dN][dW][dK]-NH2),"viable count, Liver (1:5)",[3]; 1% externally-applied agent,17 CFU/plate
same,"viable count, Skin (1:10)",[3]; 1% externally-applied agent,276 CFU/plate
same,"viable count, Spleen (1:5)",[3]; 1% externally-applied agent,5 CFU/plate
same,"viable count, Whole blood",[3]; 1% externally-applied agent,16 CFU/plate
same,"viable count, Liver (1:5)",[3]; 1‰ externally-applied agent,8 CFU/plate
same,"viable count, Skin (1:10)",[3]; 1‰ externally-applied agent,425 CFU/plate
same,"viable count, Spleen (1:5)",[3]; 1‰ externally-applied agent,13 CFU/plate
same,"viable count, Whole blood",[3]; 1‰ externally-applied agent,19 CFU/plate
same,inhibition of skin infection (in words),[3],effective
same,"viable count, Liver (1:5)",[4]; 1% externally-applied agent,9 CFU/plate
same,"viable count, Skin (1:10)",[4]; 1% externally-applied agent,997 CFU/plate
same,"viable count, Spleen (1:5)",[4]; 1% externally-applied agent,8 CFU/plate
same,"viable count, Whole blood",[4]; 1% externally-applied agent,16 CFU/plate
same,"viable count, Liver (1:5)",[4]; 1‰ externally-applied agent,11 CFU/plate
same,"viable count, Skin (1:10)",[4]; 1‰ externally-applied agent,1051 CFU/plate
same,"viable count, Spleen (1:5)",[4]; 1‰ externally-applied agent,15 CFU/plate
same,"viable count, Whole blood",[4]; 1‰ externally-applied agent,12 CFU/plate
same,inhibition of skin infection (in words),[4],effective
same,Mean survival Time,[1]; 0.2 mg/kg (low) caudal vena twice a day for three days,4.4* day
same,Mean survival Time,[1]; 1 mg/kg (middle) caudal vena twice a day for three days,5.7** day
same,curative effect on mice with multiple mixed infection (in words),[1]; 1 mg/kg dosage injection,best curative effect
same,Mean survival Time,[1]; 5 mg/kg (high) caudal vena twice a day for three days,5.3** day
same,Mortality of mice in different days after infection,"[1]; day 1, 0.2 mg/kg (low) caudal vena twice a day for three days",4
same,Mortality of mice in different days after infection,"[1]; day 1, 1 mg/kg (middle) caudal vena twice a day for three days",5
same,Mortality of mice in different days after infection,"[1]; day 1, 5 mg/kg (high) caudal vena twice a day for three days",5
same,Mortality of mice in different days after infection,"[1]; day 2, 0.2 mg/kg (low) caudal vena twice a day for three days",4
same,Mortality of mice in different days after infection,"[1]; day 2, 1 mg/kg (middle) caudal vena twice a day for three days",4
same,Mortality of mice in different days after infection,"[1]; day 2, 5 mg/kg (high) caudal vena twice a day for three days",5
same,Mortality of mice in different days after infection,"[1]; day 3, 0.2 mg/kg (low) caudal vena twice a day for three days",5
same,Mortality of mice in different days after infection,"[1]; day 3, 1 mg/kg (middle) caudal vena twice a day for three days",3
same,Mortality of mice in different days after infection,"[1]; day 3, 5 mg/kg (high) caudal vena twice a day for three days",2
same,Mortality of mice in different days after infection,"[1]; day 4, 0.2 mg/kg (low) caudal vena twice a day for three days",2
same,Mortality of mice in different days after infection,"[1]; day 4, 1 mg/kg (middle) caudal vena twice a day for three days",2
same,Mortality of mice in different days after infection,"[1]; day 4, 5 mg/kg (high) caudal vena twice a day for three days",1
same,Mortality of mice in different days after infection,"[1]; day 5, 0.2 mg/kg (low) caudal vena twice a day for three days",2
same,Mortality of mice in different days after infection,"[1]; day 5, 1 mg/kg (middle) caudal vena twice a day for three days",0
same,Mortality of mice in different days after infection,"[1]; day 5, 5 mg/kg (high) caudal vena twice a day for three days",2
same,average survival time,[1]; high dosage group,5.3 days
same,average survival time,[1]; low dosage group,4.4 days
same,average survival time,[1]; middle dosage group,5.7 days
Ac-FKKLKKLFSKLWNWK-NH2 [PL-13],"Hemolytic activity, absorbancy (OD value) at 570 nm",[2]; peptide 7.8125 μg/ml,0.043
same,"Hemolytic activity, absorbancy (OD value) at 570 nm",[2]; peptide 15.625 μg/ml,0.059
same,"Hemolytic activity, absorbancy (OD value) at 570 nm",[2]; peptide 31.25 μg/ml,0.065
same,"Hemolytic activity, absorbancy (OD value) at 570 nm",[2]; peptide 62.5 μg/ml,0.090
same,"Hemolytic activity, absorbancy (OD value) at 570 nm",[2]; peptide 125 μg/ml,0.117
same,"Hemolytic activity, absorbancy (OD value) at 570 nm",[2]; peptide 250 μg/ml,0.184
same,"Hemolytic activity, absorbancy (OD value) at 570 nm",[2]; peptide 500 μg/ml,0.220
same,"Hemolytic activity, absorbancy (OD value) at 570 nm",[2]; peptide 1000 μg/ml,0.310
same,hemolytic toxicity (in words),[2],little hemolytic toxicity
same,"viable count, Liver (1:5)",[3]; 1% externally-applied agent,12 CFU/plate
same,"viable count, Skin (1:10)",[3]; 1% externally-applied agent,369 CFU/plate
same,"viable count, Spleen (1:5)",[3]; 1% externally-applied agent,5 CFU/plate
same,"viable count, Whole blood",[3]; 1% externally-applied agent,10 CFU/plate
same,"viable count, Liver (1:5)",[3]; 1‰ externally-applied agent,10 CFU/plate
same,"viable count, Skin (1:10)",[3]; 1‰ externally-applied agent,425 CFU/plate
same,"viable count, Spleen (1:5)",[3]; 1‰ externally-applied agent,17 CFU/plate
same,"viable count, Whole blood",[3]; 1‰ externally-applied agent,18 CFU/plate
same,inhibition of skin infection (in words),[3],effective
same,"viable count, Liver (1:5)",[4]; 1% externally-applied agent,10 CFU/plate
same,"viable count, Skin (1:10)",[4]; 1% externally-applied agent,852 CFU/plate
same,"viable count, Spleen (1:5)",[4]; 1% externally-applied agent,6 CFU/plate
same,"viable count, Whole blood",[4]; 1% externally-applied agent,8 CFU/plate
same,"viable count, Liver (1:5)",[4]; 1‰ externally-applied agent,12 CFU/plate
same,"viable count, Skin (1:10)",[4]; 1‰ externally-applied agent,1005 CFU/plate
same,"viable count, Spleen (1:5)",[4]; 1‰ externally-applied agent,14 CFU/plate
same,"viable count, Whole blood",[4]; 1‰ externally-applied agent,11 CFU/plate
same,inhibition of skin infection (in words),[4],effective
